# Assay results: publication PMC10447463, “Data-mining unveils structure–property–activity correlation of viral infectivity enhancing self-assembling peptides” (Nature Communications, 2023)
# Assays:
# [1] = system: HIV-1 infection of TZM-bl cells; assay: HIV-1 infectivity enhancement assay, β-galactosidase luminescence; format: cell-based
# [2] = Zeta-potential measurement; format: physicochemical; settings: zeta potential of peptide; Fig S15 source data
# Protocol: 4 µL of 1 mg/mL peptide fibrils solution is added to a 20 µL, 50 µM ThT–solution in PBS. The mixture is incubated for 15 min at RT to allow binding of ThT dye with β–sheet rich structures. For reference PBS (4 µL) was added instead of peptide fibril solution. The samples were placed in black UV Star® 384 microliter well–plates (Greiner bio–one). Fluorescence spectra were recorded on an Infinite® M1000 PRO microplate reader (Tecan) at λem = 488 nm upon excitation at λex = 440 nm with 10 nm bandwidths and multiple reads per well (3×3). Measurements were repeated in triplicates and averaged with standard deviation. […] Zeta-Potential. For the determination of the surface charge of aggregated peptides zeta-potential measurements were conducted with a Zetasizer Nano ZS, Malvern Instruments. Unless stated otherwise the peptides were dissolved from DMSO (10 mg/mL) in PBS (pH 7.4) to concentration of 1 mg/mL and incubated for 1d at RT. Just before the measurement the 60 µL of the peptides were further diluted in 600 µL KCl (aq, 1 mM) in a 1 mL disposable folded capillary cells (DTS–1060, Zetasizer Nano series, Malvern). The zeta potential of the peptides was derived from the electrophoretic mobility based on the Smoluchowski formula. All measurements were averaged over two individually performed experiments and conducted in triplicates for each sample. Aggregate analysis. […] Furthermore, fluorescence microscopy was conducted by staining 1 µL preformed fibrils (1 mg/mL) with 9 µL ThT (50 µM). Brightfield microscopy was performed simultaneously to evaluate aggregation also for non ThT-active fibrils. The measurements were performed on a Leica DMi8 microscope with 10x air objective and equipped with a Leica MC170 HD camera with a filter setting λem = 527/30 nm upon excitation at λex = 480/40 nm) and processed with the Leica LASX software. To quantify size and number of microscopic aggregation of particles > 10 µm^2 at least 3 independently measured images were analyzed via the 3D object counter analysis tool of ImageJ, v 1.53f51. Sum–frequency generation. The SFG experiments were carried out with a femtosecond Ti: Sapphire amplified laser system (Spitfire Ace, Spectra–Physics, 800 nm, 40 fs, 1 kHz) with 5 W output power. We used 2 W to pump an optical parametric amplifier (TOPAS, light conversion) with a non–collinear difference frequency generation stage to generate broadband IR pulses. Another 1 W of the laser output passed through an etalon to generate narrowband visible pulses (10 cm^-1). The incident angles of the visible and IR beams were 36° and 41° with respect to the surface normal, respectively. The visible (13 µJ) and IR (5 µJ) pulses were overlapped spatially and temporally at the sample position. Subsequently, the generated SFG pulse was guided into a spectrograph (Acton SP 300i, Princeton Instruments), and detected with an EMCCD (Newton, Andor Technology). To avoid IR absorption of water vapor, we purged N2 for the measurement. All spectra were collected in the ssp (denoting s-, s- and p-polarized SFG, visible and IR, respectively) polarization combination. The spectra were normalized to the non–resonant signal taken from z–cut quartz after subtracting a background spectrum. […]
# TZM-bl cells = format: cell-based; settings: CellTiter-Glo, mean of n = 3 replicates; for viability 0.26 µM: peptide 0.26 µM; for viability 1.3 µM: peptide 1.3 µM; for viability 6.5 µM: peptide 6.5 µM
# Protocol: The cell viability after addition of peptides to TZM–bl cells was studied via the CellTiter–Glo assay. To this end, 10,000 cells were seeded and on the next day serial diluted peptides were added. After 3 days the supernatant was removed and 100 µL CellTiter–Glo Reagent 1:1 diluted in PBS was added. After 10 min 50 µL was transferred to white microplate and luminescence was recorded by Orion microplate luminometer.
# 2. Cell Viability of Representatively Selected Peptides
# Figure S 2 Cell Viability normalized to 100% metabolic activity as determined by CellTiterGlo Assay of 57 representatively selected peptides from the library. The selection represents infectivity enhancing and not […]
# concentration. Error bars indicate standard deviation from triplicate measurements. Source data for Figure S2 […]
# Figure S3 Cell Viability normalized to 100% metabolic activity determined by CellTiterGlo Assay of 20 peptides reported in literature. 33,34,43–48,35–42 Cell viability (> 80%) is maintained for all peptides at 1.3 µM concentration regardless of the preparation method, which is A PNF formation method by dilution of 10 mg/mL peptide stock in DMSO in PBS to 1 mg/mL or B preparation according to literature reported protocol (SI Section 8). Error bars indicate standard deviation from triplicate measurements. Source data for Figure S3 is provided.
Substance,"infectivity ([1]; infectivity class (low / medium / high) of the peptide in the sequence-pattern analysis, Fig. S22-A4, class limits not given)","Log10 Inf. rel. to EF-C ([1]; log10 of HIV-1 infection of TZM-bl cells relative to EF-C, Fig S15 source data, asymmetric std dev errors)",Zeta-pot. / mV [2] [mV],viability 0.26 µM (TZM-bl cells),viability 1.3 µM (TZM-bl cells),viability 6.5 µM (TZM-bl cells)
CKIW [TM81],low,-1.286,-3.71,106.2,107.1,100.6
QCKIKQIINMWQ [EF-C (Münch Stock)],,,,102,94.89,78.3
